Source: publication PMC3961306, “Comparison of the Cancer Gene Targeting and Biochemical Selectivities of All Targeted Kinase Inhibitors Approved for Clinical Use” (PLoS ONE, 2014)

Columns and labels:
Assay in all cases: Kinase profiling in a biochemical assay panel (mobility shift assays and ELISA), %-inhibition at 1 μM; selectivity entropy
[1] = molecular target: T1, panel of more than 300 wild-type and mutant kinases (313 kinase panel) (Homo sapiens, UniProt Q9NRA0)
T1 sequence (Q9NRA0 1-654): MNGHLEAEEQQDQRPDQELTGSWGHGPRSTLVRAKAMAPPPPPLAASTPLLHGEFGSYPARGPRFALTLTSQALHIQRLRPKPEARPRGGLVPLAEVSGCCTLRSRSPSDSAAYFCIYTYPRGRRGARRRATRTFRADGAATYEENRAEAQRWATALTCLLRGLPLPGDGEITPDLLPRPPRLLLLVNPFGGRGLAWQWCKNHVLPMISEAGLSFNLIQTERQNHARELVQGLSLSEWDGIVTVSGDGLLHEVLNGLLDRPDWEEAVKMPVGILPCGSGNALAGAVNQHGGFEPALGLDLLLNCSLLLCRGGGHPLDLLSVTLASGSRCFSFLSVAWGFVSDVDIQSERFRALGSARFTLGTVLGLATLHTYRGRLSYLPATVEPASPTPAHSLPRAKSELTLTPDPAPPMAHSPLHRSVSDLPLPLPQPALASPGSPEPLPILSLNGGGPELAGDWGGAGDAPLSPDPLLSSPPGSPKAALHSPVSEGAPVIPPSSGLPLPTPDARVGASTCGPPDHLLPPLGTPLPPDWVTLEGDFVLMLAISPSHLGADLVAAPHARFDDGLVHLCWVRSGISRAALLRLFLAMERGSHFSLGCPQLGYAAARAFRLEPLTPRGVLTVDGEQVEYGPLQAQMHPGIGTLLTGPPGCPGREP

[2] = molecular target: panel of more than 300 wild-type and mutant kinases (313 kinase panel) (Homo sapiens, UniProt O95819)
[3] = molecular target: panel of more than 300 wild-type and mutant kinases (313 kinase panel) (Homo sapiens, UniProt P42685)
[4] = molecular target: panel of more than 300 wild-type and mutant kinases (313 kinase panel) (Homo sapiens, UniProt P80192)
[5] = molecular target: panel of more than 300 wild-type and mutant kinases (313 kinase panel) (Homo sapiens, UniProt Q9P1W9)
[6] = molecular target: panel of more than 300 wild-type and mutant kinases (313 kinase panel) (Homo sapiens, UniProt Q9Y6M4)
[7] = molecular target: panel of more than 300 wild-type and mutant kinases (313 kinase panel) (Homo sapiens, UniProt P22455, N535K); details: kinase FGFR4(N535K); compound at 1 μM
[8] = molecular target: T2, panel of more than 300 wild-type and mutant kinases (313 kinase panel) (Homo sapiens, UniProt P29322)
T2 sequence (P29322 28-1005): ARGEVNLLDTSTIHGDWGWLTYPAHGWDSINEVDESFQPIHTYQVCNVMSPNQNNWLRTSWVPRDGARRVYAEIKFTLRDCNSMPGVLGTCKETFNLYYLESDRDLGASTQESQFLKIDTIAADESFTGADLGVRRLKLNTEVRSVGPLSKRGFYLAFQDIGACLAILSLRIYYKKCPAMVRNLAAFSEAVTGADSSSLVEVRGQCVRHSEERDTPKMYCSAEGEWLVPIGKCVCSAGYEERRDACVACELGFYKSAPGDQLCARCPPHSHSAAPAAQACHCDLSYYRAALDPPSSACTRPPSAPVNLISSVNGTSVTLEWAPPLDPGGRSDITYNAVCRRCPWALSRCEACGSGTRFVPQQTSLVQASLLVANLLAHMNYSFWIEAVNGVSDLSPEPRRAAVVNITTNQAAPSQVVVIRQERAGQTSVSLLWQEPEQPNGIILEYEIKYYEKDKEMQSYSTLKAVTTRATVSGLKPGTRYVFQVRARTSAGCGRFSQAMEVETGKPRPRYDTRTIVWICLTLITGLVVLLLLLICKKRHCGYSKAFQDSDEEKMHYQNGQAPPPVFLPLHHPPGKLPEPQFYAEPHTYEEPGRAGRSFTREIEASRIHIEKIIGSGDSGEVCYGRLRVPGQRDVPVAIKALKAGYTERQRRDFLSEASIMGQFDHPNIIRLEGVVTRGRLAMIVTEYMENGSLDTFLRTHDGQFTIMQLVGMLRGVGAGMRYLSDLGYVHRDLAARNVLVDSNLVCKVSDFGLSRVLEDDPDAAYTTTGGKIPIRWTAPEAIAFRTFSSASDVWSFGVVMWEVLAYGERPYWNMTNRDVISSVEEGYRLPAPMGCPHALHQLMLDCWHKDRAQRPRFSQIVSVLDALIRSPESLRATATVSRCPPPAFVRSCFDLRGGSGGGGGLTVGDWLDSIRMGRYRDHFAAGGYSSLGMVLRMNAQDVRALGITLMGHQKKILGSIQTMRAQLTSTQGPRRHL

[9] = molecular target: panel of more than 300 wild-type and mutant kinases (313 kinase panel) (Homo sapiens, UniProt P49761)
[10] = molecular target: panel of more than 300 wild-type and mutant kinases (313 kinase panel) (Homo sapiens, UniProt O96017)
[11] = molecular target: panel of more than 300 wild-type and mutant kinases (313 kinase panel) (Homo sapiens, UniProt Q02750)
[12] = kinase MAP2K1, compound at 1 μM

Sequence of panel of more than 300 wild-type and mutant kinases (313 kinase panel) (Homo sapiens, UniProt Q9Y6M4) (Q9Y6M4 whole entry, stated change not applied): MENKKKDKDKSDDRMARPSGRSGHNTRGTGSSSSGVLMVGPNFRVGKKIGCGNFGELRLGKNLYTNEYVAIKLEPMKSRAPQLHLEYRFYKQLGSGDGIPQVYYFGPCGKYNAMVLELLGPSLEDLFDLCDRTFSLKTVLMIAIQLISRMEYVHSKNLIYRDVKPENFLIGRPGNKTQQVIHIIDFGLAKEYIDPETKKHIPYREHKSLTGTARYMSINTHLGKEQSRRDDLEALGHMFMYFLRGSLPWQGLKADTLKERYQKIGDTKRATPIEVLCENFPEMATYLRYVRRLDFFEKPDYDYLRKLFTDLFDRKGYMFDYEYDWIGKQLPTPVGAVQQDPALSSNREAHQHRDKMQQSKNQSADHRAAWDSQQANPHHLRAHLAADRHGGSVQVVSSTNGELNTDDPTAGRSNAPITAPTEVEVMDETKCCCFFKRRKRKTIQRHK
Sequence of panel of more than 300 wild-type and mutant kinases (313 kinase panel) (Homo sapiens, UniProt P42685) (P42685 whole entry, change not shown): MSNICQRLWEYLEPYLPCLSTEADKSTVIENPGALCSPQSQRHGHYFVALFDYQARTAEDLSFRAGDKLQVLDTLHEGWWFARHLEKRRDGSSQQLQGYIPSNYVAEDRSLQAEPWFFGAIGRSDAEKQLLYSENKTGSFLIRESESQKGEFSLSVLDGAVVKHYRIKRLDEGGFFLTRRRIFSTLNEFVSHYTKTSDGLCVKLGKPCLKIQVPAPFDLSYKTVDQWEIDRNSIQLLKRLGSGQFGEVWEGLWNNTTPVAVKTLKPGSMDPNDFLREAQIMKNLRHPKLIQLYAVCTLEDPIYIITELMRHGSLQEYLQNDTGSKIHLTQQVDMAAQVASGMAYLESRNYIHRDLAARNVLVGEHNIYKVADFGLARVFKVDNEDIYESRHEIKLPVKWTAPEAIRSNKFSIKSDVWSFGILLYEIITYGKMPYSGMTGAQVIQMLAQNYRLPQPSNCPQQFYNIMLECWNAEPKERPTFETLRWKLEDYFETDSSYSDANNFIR
Sequence of panel of more than 300 wild-type and mutant kinases (313 kinase panel) (Homo sapiens, UniProt P22455, N535K) (P22455 22-802 N535K): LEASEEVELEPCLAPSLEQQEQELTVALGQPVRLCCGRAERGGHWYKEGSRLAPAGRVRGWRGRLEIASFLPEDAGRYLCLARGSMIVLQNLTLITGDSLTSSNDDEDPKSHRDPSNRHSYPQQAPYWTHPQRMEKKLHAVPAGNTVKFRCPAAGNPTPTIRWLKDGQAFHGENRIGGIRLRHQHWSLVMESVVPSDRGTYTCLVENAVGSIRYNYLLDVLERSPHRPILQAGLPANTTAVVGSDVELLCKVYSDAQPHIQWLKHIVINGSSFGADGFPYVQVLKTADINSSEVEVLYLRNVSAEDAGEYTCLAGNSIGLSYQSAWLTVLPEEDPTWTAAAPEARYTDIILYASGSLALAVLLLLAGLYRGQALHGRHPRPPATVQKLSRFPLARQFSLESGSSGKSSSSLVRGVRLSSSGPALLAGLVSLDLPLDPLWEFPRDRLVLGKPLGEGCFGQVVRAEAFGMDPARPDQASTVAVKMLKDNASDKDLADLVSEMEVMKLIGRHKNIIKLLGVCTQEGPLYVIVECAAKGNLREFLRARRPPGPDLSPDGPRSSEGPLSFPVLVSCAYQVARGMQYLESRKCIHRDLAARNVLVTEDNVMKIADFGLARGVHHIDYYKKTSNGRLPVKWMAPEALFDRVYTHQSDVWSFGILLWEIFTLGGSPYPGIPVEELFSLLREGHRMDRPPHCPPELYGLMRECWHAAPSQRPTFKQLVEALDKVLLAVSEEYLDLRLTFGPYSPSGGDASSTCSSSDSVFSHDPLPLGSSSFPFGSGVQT
Sequence of panel of more than 300 wild-type and mutant kinases (313 kinase panel) (Homo sapiens, UniProt P80192) (P80192 whole entry, change not shown): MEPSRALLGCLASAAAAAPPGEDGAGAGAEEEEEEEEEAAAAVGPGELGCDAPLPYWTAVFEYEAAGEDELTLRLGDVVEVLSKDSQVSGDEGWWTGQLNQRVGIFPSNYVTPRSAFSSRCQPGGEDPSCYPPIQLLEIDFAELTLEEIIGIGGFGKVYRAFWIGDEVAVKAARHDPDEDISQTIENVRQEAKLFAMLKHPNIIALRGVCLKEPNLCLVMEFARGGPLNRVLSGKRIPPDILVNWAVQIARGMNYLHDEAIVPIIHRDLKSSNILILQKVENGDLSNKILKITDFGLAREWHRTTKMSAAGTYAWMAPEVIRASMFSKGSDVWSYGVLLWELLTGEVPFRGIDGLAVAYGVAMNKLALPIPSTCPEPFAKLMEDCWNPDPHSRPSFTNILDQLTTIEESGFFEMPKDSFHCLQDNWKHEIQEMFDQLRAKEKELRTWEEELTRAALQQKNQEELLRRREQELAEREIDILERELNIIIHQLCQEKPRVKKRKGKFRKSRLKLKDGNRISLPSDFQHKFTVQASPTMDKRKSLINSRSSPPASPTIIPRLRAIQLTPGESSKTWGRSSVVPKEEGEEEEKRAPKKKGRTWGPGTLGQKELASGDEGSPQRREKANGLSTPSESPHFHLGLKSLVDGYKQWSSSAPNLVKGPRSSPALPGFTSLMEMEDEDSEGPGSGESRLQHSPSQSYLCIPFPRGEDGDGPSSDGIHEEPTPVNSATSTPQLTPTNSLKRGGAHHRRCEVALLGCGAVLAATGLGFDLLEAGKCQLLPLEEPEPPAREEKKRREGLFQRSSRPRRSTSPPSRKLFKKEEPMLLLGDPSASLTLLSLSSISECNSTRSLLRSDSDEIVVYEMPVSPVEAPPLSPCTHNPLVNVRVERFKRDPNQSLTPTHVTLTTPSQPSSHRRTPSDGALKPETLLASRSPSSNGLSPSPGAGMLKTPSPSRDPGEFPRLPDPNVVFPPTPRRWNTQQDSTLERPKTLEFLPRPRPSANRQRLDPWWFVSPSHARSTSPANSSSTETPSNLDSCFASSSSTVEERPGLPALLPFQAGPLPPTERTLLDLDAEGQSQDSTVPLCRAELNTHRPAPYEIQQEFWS
Sequence of panel of more than 300 wild-type and mutant kinases (313 kinase panel) (Homo sapiens, UniProt P49761) (P49761 whole entry, change not shown): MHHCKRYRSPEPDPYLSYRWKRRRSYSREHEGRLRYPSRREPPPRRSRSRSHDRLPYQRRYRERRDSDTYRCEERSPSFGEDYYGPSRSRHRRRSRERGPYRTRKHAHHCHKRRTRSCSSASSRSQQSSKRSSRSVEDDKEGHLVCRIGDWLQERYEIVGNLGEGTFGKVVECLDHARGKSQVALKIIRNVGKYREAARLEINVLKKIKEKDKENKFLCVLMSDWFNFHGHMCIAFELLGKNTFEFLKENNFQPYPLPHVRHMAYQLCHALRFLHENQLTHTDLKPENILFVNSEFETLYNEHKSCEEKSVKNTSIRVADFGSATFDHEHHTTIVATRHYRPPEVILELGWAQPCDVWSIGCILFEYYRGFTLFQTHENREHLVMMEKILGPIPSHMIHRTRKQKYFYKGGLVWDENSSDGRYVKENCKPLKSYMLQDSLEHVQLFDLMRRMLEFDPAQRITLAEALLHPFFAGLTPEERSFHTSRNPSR

SMILES	%-inhibition of SPHK2 ([1]; kinase SPHK2, 1 μM) [%]	%-inhibition of HGK ([2]; kinase HGK, compound at 1 μM) [%]	%-inhibition of FRK ([3]; kinase FRK, compound at 1 μM) [%]	%-inhibition of MLK1 ([4]; kinase MLK1, 1 μM) [%]	%-inhibition of PIM2 ([5]; kinase PIM2, 1 μM) [%]	%-inhibition, CK1γ3 ([6]; kinase CK1γ3, 1 μM compound) [%]	%-inhibition of FGFR4(N535K) [7] [%]	%-inhibition of EPHA8 ([8]; kinase EPHA8, compound at 1 μM) [%]	%-inhibition of CLK3 ([9]; kinase CLK3, compound at 1 μM) [%]	%-inhibition, CHK2 ([10]; kinase CHK2, 1 μM compound) [%]	%-inhibition of MAP2K1 [11, 12] [%]	other results
CN(C)C/C=C/C(=O)Nc1cc2c(Nc3ccc(F)c(Cl)c3)ncnc2cc1O[C@H]1CCOC1 [afatinib]	-10											
COc1cc(Nc2c(C#N)cnc3cc(OCCCN4CCN(C)CC4)c(OC)cc23)c(Cl)cc1Cl [bosutinib]	4.4	100	94	93	-12	3.3	30	99				
COc1cc2nccc(Oc3ccc(NC(=O)C4(C(=O)Nc5ccc(F)cc5)CC4)cc3)c2cc1OC [cabozantinib]	2	21		20	-12	5	39	98	-1.24	65	82	
CC(C)(C)c1nc(-c2cccc(NS(=O)(=O)c3c(F)cccc3F)c2F)c(-c2ccnc(N)n2)s1 [dabrafenib]	-14	7	81		0.238		8	35	17	7		
Cc1nc(Nc2ncc(C(=O)Nc3c(C)cccc3Cl)s2)cc(N2CCN(CCO)CC2)n1 [dasatinib]		78			5				0.469			
C#Cc1cccc(Nc2ncnc3cc(OCCOC)c(OCCOC)cc23)c1 [erlotinib]												%-inhibition of HGK ([2]; 1 µM): 50%; %-inhibition of FRK ([3]; 1 µM): 41%; %-inhibition of MLK1 ([4]; 1 µM): 14%; %-inhibition of PIM2 ([5]; 1 µM): 9%; %-inhibition, CK1γ3 ([6]; 1 µM): -0.719%; %-inhibition of SPHK2 ([1]; 1 µM): -2.22%; %-inhibition of CLK3 ([9]; 1 µM): -0.469%; %-inhibition, CHK2 ([10]; 1 µM): 10%; %-inhibition of MAP2K1 ([11]; 1 µM): 26%; %-inhibition of EPHA8 ([8]; 1 µM): 33%
CS(=O)(=O)CCNCc1ccc(-c2ccc3ncnc(Nc4ccc(OCc5cccc(F)c5)c(Cl)c4)c3c2)o1 [lapatinib]	-4		0.586	7	0.254				0.469	12	21	%-inhibition of HGK ([2]; 1 µM): 1%; %-inhibition, CK1γ3 ([6]; 1 µM): -0.863%
Cc1cn(-c2cc(NC(=O)c3ccc(C)c(Nc4nccc(-c5cccnc5)n4)c3)cc(C(F)(F)F)c2)cn1 [nilotinib]	6		70	-12	7			98	-10	-12	-8	%-inhibition of HGK ([2]; 1 µM): 4%; %-inhibition, CK1γ3 ([6]; 1 µM): -10%
Cc1ccc(Nc2nccc(N(C)c3ccc4c(C)n(C)nc4c3)n2)cc1S(N)(=O)=O [pazopanib]	4	50		90	-4	-2		43	0.791	5.7	2.11	
Cc1ccc(C(=O)Nc2ccc(CN3CCN(C)CC3)c(C(F)(F)F)c2)cc1C#Cc1cnc2cccnn12 [ponatinib]	11	92	100	29	3.41	4.6		100				
CCN(CC)CCNC(=O)c1c(C)[nH]c(/C=C2\C(=O)Nc3ccc(F)cc32)c1C [sunitinib]		96									89	
CC(=O)Nc1cccc(-n2c(=O)n(C3CC3)c(=O)c3c(Nc4ccc(I)cc4F)n(C)c(=O)c(C)c32)c1 [trametinib]	-14	-3.71	-3	16	-4		-5.47	-8	-0.0684	-5	99	
